Common to all, as to experiment: NCI-60 cell line screen, 48 h
Assay [1] deals with EKVX NSCLC.
Assay [2] relates to NCI/ADR-RES ovarian.
In assay [3] the test system is UACC-62 melanoma.
For assay [4], the system named is BT-549 breast.
Assay [5] has as its system OVCAR-3 ovarian.
Assay [6] relates to A498 renal.
The subject of assay [7] is SR leukemia.
Assay [8] has as its system OVCAR-5 ovarian.
Assay [9] has as its system SK-MEL-28 melanoma.
The test system of assay [10] is LOX IMVI melanoma.

Several values for one entry are separate records, joined by “and”; a condition that tells them apart may be missing. Equal entries are not always repeated.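 Briefly, cells in 96-well plates were exposed to five compound concentrations for 48 h, and endpoints were estimated by linear interpolation. Here, GI50 denotes the concentration required for 50% inhibition of growth. TGI: concentration producing complete growth inhibition.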 Where only a bound is given, the exact number is not on record here.

With `c1ccc(CN2CCN3CCN(CC2)CCN(Cc2ccccc2)CC3)cc1`, the TGI is 32.6 µM in [1]; greater than 100 µM in assay [2]; 14.9 µM in assay [3]; 17.6 µM in assay [4]; 24.5 µM in assay [5]; 27.5 µM in assay [6]. In addition, the TGI in assay [7] was found to be 16.5 µM; in assay [8], 28.6 µM; in [9] it was 18.4 µM; in assay [10], 25.7 µM.

For `O=c1ccc2nc(-c3ccccn3)nn(-c3ccccc3)c-2c1`, the GI50 in assay [1] was 6.25 µM; in assay [2], 6.91 µM; in assay [3], 1.95 µM; in assay [4], 2.86 µM; in assay [5] it was 1.77 µM; in assay [6] it was 14.1 µM. Also, the GI50 in assay [7] was 2.31 µM; in assay [8], 4.99 µM; in [9] it was 1.69 µM; in assay [10], 1.78 µM. For the same compound, the TGI in assay [1] amounted to 20 µM; in assay [2], 65.3 µM; in [3] it was 4.3 µM; in assay [4], 10.1 µM; in assay [5], 3.17 µM; in assay [6], 27.2 µM. Besides, the TGI is greater than 100 µM in assay [7], 18.1 µM in assay [8], 3.24 µM in assay [9] and 3.44 µM in assay [10].

For `NC(N)=NCCCC(NC(=O)OCCCCn1ccc(N)nc1=O)C(=O)O` (stereo unspecified), the TGI in assay [1], in assay [2], in assay [3], in assay [4], in assay [5] and in [6] was greater than 100 µM throughout. The TGI in assay [7], in assay [8], in assay [9] and in assay [10] was greater than 100 µM each time.

Turning to `C=C(C(=O)O[C@H]1C(=O)C2=C(C)CCC3C(=C)C(=O)O[C@@H]3C2[C@]1(C)O)C1CC[C@]2(C)CCCC(=C)[C@H]2C1` (stereo partly specified), the TGI is 17.8 µM and 22.7 µM in assay [1]; 33.6 µM and > 23.8 µM in [2]; 9.79 µM and 31.6 µM in assay [3]; 14 µM and 11.1 µM in assay [4]; 9.84 µM and 9.06 µM in [5]; 6.88 µM and 26.1 µM in assay [6]. Further, the TGI in assay [7] is greater than 100 µM; in assay [8] it was 25 µM and 41 µM; in [9], 12.5 µM; in assay [10], 11.5 µM and 15.7 µM. Further, the GI50 in assay [2] was 8.52 µM; in [3], 16.9 µM; in [4], 6.99 µM; in assay [5], 3.39 µM; in assay [6], 0.0282 µM; in assay [8], 9.64 µM. The GI50 in assay [10] was 5.26 µM.

In the case of `COc1cc(CS(=O)c2ccc(O)cc2)cc(OC)c1OC` (stereo unspecified), the TGI in [1], in assay [2], in assay [3], in assay [4], in [5] and in assay [6] was greater than 100 µM throughout. Moreover, the TGI in [7], in [8], in [9] and in assay [10] was greater than 100 µM throughout.

Regarding `CN(C)CCCNCc1cccc2ccccc12`, the TGI in [1], in [2], in [3], in assay [4], in assay [5] and in assay [6] was greater than 100 µM in each case. The TGI was 68.5 µM in [7], greater than 100 µM in [8], greater than 100 µM in assay [9] and greater than 100 µM in [10].

With `CCC[C@@H]1C(=O)N=C(N)N1C(=O)OCc1ccccc1`, the TGI in [1], in [2], in [3], in assay [4], in assay [5] and in assay [6] was greater than 100 µM in each case. Further, the TGI in assay [7], in assay [8], in [9] and in [10] was greater than 100 µM throughout.

For `CN(C)/N=N/c1nc[nH]c1C(N)=O`, the GI50 was 94.1 µM and > 134 µM in [1]; 232 µM in assay [2]; 23.8 µM in assay [3]; 101 µM in [5]; 72.4 µM and > 133 µM in assay [6]; 64.4 µM in assay [7]. In addition, the GI50 is greater than 788 µM in assay [8], 595 µM in assay [9] and 29.8 µM in [10]. In addition, the TGI in assay [1] was greater than 169 µM; in [3], > 98.6 µM and 363 µM; in assay [4], greater than 1000 µM; in [5] it was greater than 1000 µM; in assay [6], greater than 875 µM; in assay [7], greater than 1000 µM. Moreover, the TGI in assay [8], in assay [9] and in [10] was greater than 1000 µM in each case.

Turning to `COc1ccc(C2=NN=C3C(c4ccccc4)=Nc4ccccc4N3C2)cc1`, the TGI is greater than 100 µM in assay [1]; 90.1 µM in [2]; greater than 100 µM in [3]; greater than 100 µM in [4]; 6.52 µM in assay [5]; greater than 100 µM in assay [6]. Moreover, the TGI was 49.5 µM in assay [7], greater than 100 µM in [8], greater than 100 µM in assay [9] and greater than 100 µM in assay [10].

As for `C[C@H]1COC2=C1C(=O)C(=O)c1c2ccc2c1CCCC2(C)C`, the TGI in assay [1] was 71.7 µM; in [2], 24 µM; in assay [3], 8.2 µM; in assay [4], 5.71 µM; in [5], 5.92 µM; in assay [6], 52.6 µM. For the same compound, the TGI in assay [7] was greater than 42.7 µM; in assay [8] it was greater than 91.4 µM; in assay [9], 20.6 µM; in assay [10], 14.4 µM.

For the compound `Cc1cc(S(=O)(=O)/N=C(/NN)NNc2cccc(C(F)(F)F)n2)c(S)cc1Cl`, the TGI turned out to be 63.8 µM in [1]; 46.2 µM in assay [2]; 37 µM in assay [3]; 36.7 µM in assay [4]; 62.7 µM in assay [5]; 50.1 µM in assay [6]. The TGI in assay [7] was 55.1 µM; in [8], 29.5 µM; in assay [9] it was 33.5 µM; in assay [10], 39.7 µM.

With `Cc1c(C(=O)O)n2cnnc2c2ccccc12`, the TGI in [1], in assay [2], in assay [3], in assay [4], in assay [5] and in assay [6] was greater than 100 µM in each case. The TGI in [7], in [8], in assay [9] and in assay [10] was greater than 100 µM in each case.

Take `COC(=O)C1=C(C(=O)OC)SC2(S1)C(C(=O)OC)=C(C(=O)OC)Sc1c2ssc1=NC(C)(C)C`: the TGI in assay [1] came to 3.36 µM; in assay [2], 7.73 µM; in [3], 2.97 µM; in assay [4], 7.47 µM; in [5] it was 3.5 µM; in assay [6], 3.48 µM. Also, the TGI in assay [7] is 1.91 µM; in assay [8], 3.68 µM; in assay [9], 5.02 µM; in assay [10] it was 2.4 µM.

`Brc1ccc2c(-c3csc(-c4c[nH]c5ccccc45)n3)c[nH]c2c1`: the TGI amounted to 36.1 µM in assay [1]; 35.9 µM in assay [2]; 35.9 µM in [3]; 37.4 µM in [4]; 29.1 µM in assay [5]; 32.2 µM in [6]. Further, the TGI turned out to be 21.7 µM in assay [7], 32.7 µM in assay [8], 31 µM in assay [9] and 29.6 µM in [10]. For the same compound, the GI50 in assay [7] was 6.36 µM.

For the compound `CCC(NC1=NCCO1)c1cccs1` (stereo unspecified), the TGI in assay [1] is 31.1 µM; in [2] it was greater than 100 µM; in assay [3], 30.8 µM; in [4], 37.7 µM; in assay [5] it was 30.6 µM; in assay [6] it was 42.5 µM. For the same compound, the TGI in assay [7] was greater than 100 µM; in [8], 30.7 µM; in [9], 29 µM; in assay [10], 66.7 µM.

As for `Cc1sc2nc3n(c(=O)c2c1C)N=CN(c1ccc(F)cc1)C3`, the TGI in assay [1], in [2], in assay [3], in [4], in assay [5] and in assay [6] was greater than 100 µM in each case. The TGI in [7], in [8], in [9] and in assay [10] was greater than 100 µM in each case.

For the origin of these results see PubChem BioAssay (NCI).
